# How the values were obtained:
# [1] = tested on: CS-induced atherosclerosis in guinea pig aorta; experiment: Cigarette-smoke-induced atherosclerosis in guinea pig aorta (H&E and Oil red O staining of aortic sections); assay type: in vivo; conditions: dietary supplementation of vitamin C 5 mg/day in addition to CS exposure; aortic sections stained with H&E or Oil red O (FIG. 3)
# Protocol: Two to six, preferably three to four, month old male guinea pigs weighing between about 350 to about 450 grams (g) are used. All animals are maintained on a vitamin C-free diet for 7 days in order to minimize the in vivo levels of vitamin C in plasma and tissues. After 7 days of vitamin C deprivation, the guinea pigs are given a dietary supplementation of about 1 milligram (mg) of vitamin C per day (1 mg vitamin C/day) to prevent the onset of scurvy. (It is known that a dose of 0.8 mg vitamin C/day is sufficient to maintain guinea pigs without the development of scurvy.) Thereafter, the guinea pigs are subjected to cigarette smoke exposure (3 cigarettes per animal per day (3 cigarettes/animal/day) with 2 puffs per cigarette (2 puffs/cigarette)). Two puffs per cigarette indicate that the burning of a cigarette is divided into two halves. In each half, animals are exposed to cigarette smoke for a period of 1 minute (min.). There is an interval of 1 min. between these two halves. During this interval, animals are exposed to normal atmospheric air. Likewise, 3 puffs/cigarette would indicate that the burning of a cigarette is divided into three approximately equal parts with two intervals in between. […]
# scurvy = conditions: dietary; cited from earlier work
smiles,measurement,setting,value
"O=C1O[C@H]([C@@H](O)CO)C(O)=C1O [vitamin C, L-ascorbic acid]",effect on CS-induced atherogenic changes in guinea pig aorta,[1],prevents CS-induced atherogenic changes
same,dose sufficient to maintain guinea pigs without the development of scurvy,scurvy,0.8 mg vitamin C/day

# Reference: US8541645B2, “Animal model for cigarette-smoke-induced atherosclerosis and related methods” (University of Calcutta, priority 2009, dated 2013)
